Values belong to the compound of their own block, whether it stands above or below them.
Experiments:
[1] = system: LR1 (RNA, aptamer) GGGAGAGGAGGGAGAUAGAUAUCAAACUAAACACUUGAGGCUCGAUCUUUAUUGUAUUUACACCAUCUUGUGCAUCAUUUCGUGGAUGCCACAGGAC; assay: ITC; conditions: 3 mM Mg2+, PBS, 1 mM ligand into 20 μM RNA, ligand-into-buffer heat subtracted
[2] = system: HDB1 (RNA, aptamer) GGGAGAGGAGGGAGAUAGAUAUCAAACCCCAUCUUGAGGCUCGAUCGGCUCGUUUUUCAGGGAUAAGUAGAUUUAGUUUUUCGUGGAUGCCACAGGAC; assay: fluorescence polarization, displacement of Cy3-ODN; conditions: 3 mM Mg2+, PBS, apparent, 0.005% Tween 20, 21 °C, shortened Cy3-labelled capture ODN displaced, inhibitor vs response fit
[3] = system: LR2 (RNA, aptamer) GGGAGAGGAGGGAGAUAGAUAUCAAUUACCACGCUUGAGGCUCGAUCUUUUGCUUUGUCCAUCUAGUGUUGUCUGCGUUUCGUGGAUGCCACAGGAC; assay: fluorescence polarization, displacement of Cy3-ODN; conditions: 3 mM Mg2+, PBS, 0.005% Tween 20, 21 °C, 100 nM Cy3-ODN, 500 nM RNA, 100 μM compound
[4] = system: LM1 (RNA, aptamer) GGGAGAGGAGGGAGAUAGAUAUCAACACUUGAACGUGAGGCUCGAUCUUUUUAGCUUUUUACUGCGGCGUUAACGGUUUUCGUGGAUGCCACAGGAC; assay: fluorescence polarization, displacement of Cy3-ODN; conditions: 3 mM Mg2+, PBS, apparent, 0.005% Tween 20, 21 °C, shortened Cy3-labelled capture ODN displaced, inhibitor vs response fit
[5] = system: LM2 (RNA, aptamer) GGGAGAGGAGGGAGAUAGAUAUCAAACUAACAGUCUGAGGCUCGAUCUUUUGCAGAAACUUUCGUCUUUUGGCUAUCUUUCGUGGAUGCCACAGGAC; assay: fluorescence polarization, displacement of Cy3-ODN; conditions: 3 mM Mg2+, PBS, 0.005% Tween 20, 21 °C, 100 nM Cy3-ODN, 500 nM RNA, 100 μM compound
[6] = system: LM1 (RNA, aptamer) GGGAGAGGAGGGAGAUAGAUAUCAACACUUGAACGUGAGGCUCGAUCUUUUUAGCUUUUUACUGCGGCGUUAACGGUUUUCGUGGAUGCCACAGGAC; assay: ITC; conditions: 3 mM Mg2+, PBS, 1 mM ligand into 20 μM RNA, ligand-into-buffer heat subtracted
[7] = system: HDB2 (RNA, aptamer) GGGAGAGGAGGGAGAUAGAUAUCAAACCGGCACCUGAGGCUCGAUCUUUGUUUGCAAAGGGCAUUGCAUCGAUGUGUUUUUCGUGGAUGCCACAGGAC; assay: ITC; conditions: 3 mM Mg2+, PBS, 1 mM ligand into 20 μM RNA, ligand-into-buffer heat subtracted, legend also prints HDB1
[8] = system: LR1 (RNA, aptamer) GGGAGAGGAGGGAGAUAGAUAUCAAACUAAACACUUGAGGCUCGAUCUUUAUUGUAUUUACACCAUCUUGUGCAUCAUUUCGUGGAUGCCACAGGAC; assay: fluorescence polarization, displacement of Cy3-ODN; conditions: 3 mM Mg2+, PBS, 0.005% Tween 20, 21 °C; for binding: 100 nM Cy3-ODN, 500 nM RNA, tested at 100 μM
[9] = system: I5 (RNA, aptamer) GGGAGAGGAGGGAGAUAGAUAUCAAACGAACGGCAUGAGGCUCGAUCUACGUUACCCCUCUGACGUUGGCAUUUGUGUUUCGUGGAUGCCACAGGAC; assay: fluorescence polarization, displacement of Cy3-ODN; conditions: 3 mM Mg2+, PBS, apparent, 0.005% Tween 20, 21 °C, 9-nt Cy3-ODN displaced, inhibitor vs response fit
[10] = system: P7 (RNA, aptamer) GGGAGAGGAGGGAGAUAGAUAUCAACAGGAACGGUUGAGGCUCGAUCAGAUACCCCUCGCUACAAUGCGGCAUUGGGUUUCGUGGAUGCCACAGGAC; assay: fluorescence polarization, displacement of Cy3-ODN; conditions: 3 mM Mg2+, PBS, 0.005% Tween 20, 21 °C, 9-nt Cy3-ODN, 500 nM RNA, 0.1-1 mM compound
[11] = system: R3 (RNA, aptamer) GGGAGAGGAGGGAGAUAGAUAUCAAGUCGGAGGUAUGAGGCUCGAUCACGAAGAAGGCCGAUUGGGUUACCCUCCUUUUUCGUGGAUGCCACAGGAC; assay: ITC; conditions: 300 μM ligand into 20 μM RNA
[12] = system: R2 (RNA, aptamer) GGGAGAGGAGGGAGAUAGAUAUCAAGAGGUACGUAUGAGGCUCGAUCGGAAGGCUGGUCUAGGUCCCGUCCUGACCGUUUCGUGGAUGCCACAGGAC; assay: fluorescence polarization, displacement of Cy3-ODN; conditions: 3 mM Mg2+, PBS, 0.005% Tween 20, 21 °C, 9-nt Cy3-ODN, 500 nM RNA, 0.1-1 mM compound
[13] = system: R3 (RNA, aptamer) GGGAGAGGAGGGAGAUAGAUAUCAAGUCGGAGGUAUGAGGCUCGAUCACGAAGAAGGCCGAUUGGGUUACCCUCCUUUUUCGUGGAUGCCACAGGAC; assay: fluorescence polarization, displacement of Cy3-ODN; conditions: 3 mM Mg2+, PBS, apparent, 0.005% Tween 20, 21 °C, 9-nt Cy3-ODN displaced, inhibitor vs response fit
[14] = system: T1 (RNA, aptamer) GGGAGAGGAGGGAGAUAGAUAUCAACUAUCGCUUGUGAGGCUCGAUCUUUAUGUGCCCCUCCUUCAGGUUUGGCGUCUUUCGUGGAUGCCACAGGAC; assay: ITC; conditions: 1 mM ligand into 50 μM RNA
[15] = system: T1 (RNA, aptamer) GGGAGAGGAGGGAGAUAGAUAUCAACUAUCGCUUGUGAGGCUCGAUCUUUAUGUGCCCCUCCUUCAGGUUUGGCGUCUUUCGUGGAUGCCACAGGAC; assay: fluorescence polarization, displacement of Cy3-ODN; conditions: 3 mM Mg2+, PBS, 0.005% Tween 20, 21 °C

Kd [1]: 34.7 ± 1.97 µM | Kd [2]: ~ 10 μM | binding [3]: yes | Kd [4]: ~ 4 μM | binding [5]: yes | Kd [6]: 38.0 ± 2.10 µM | Kd [7]: 55.9 ± 3.57 µM | Kd ([8]; apparent, shortened Cy3-labelled capture ODN displaced, inhibitor vs response fit): ~ 3 μM
Compound: NC[C@@H]1O[C@H](O[C@H]2[C@@H](O)[C@H](O[C@@H]3[C@@H](O)[C@H](N)C[C@H](N)[C@H]3O[C@H]3O[C@H](CN)[C@@H](O)[C@H](O)[C@H]3N)O[C@@H]2CO)[C@H](N)[C@@H](O)[C@@H]1O

Kd [1]: 130.0 ± 30.9 µM
Compound: NC[C@H]1O[C@H](O[C@H]2[C@H](O)[C@@H](O[C@H]3O[C@H](CO)[C@@H](O)[C@H](N)[C@H]3O)[C@H](N)C[C@@H]2N)[C@H](N)[C@@H](O)[C@@H]1O

Kd [9]: ~ 76 μM
Compound: O=P(O)(O)O[C@H]1[C@@H](OP(=O)(O)O)[C@H](OP(=O)(O)O)[C@@H](OP(=O)(O)OP(=O)(O)O)[C@H](OP(=O)(O)O)[C@H]1OP(=O)(O)O

binding [8]: no
Compound: CC1(C)S[C@@H]2[C@H](NC(=O)[C@H](N)c3ccccc3)C(=O)N2[C@H]1C(=O)O

binding [10]: weak
Compound: Nc1nc2c(ncn2[C@@H]2O[C@H](COP(=O)(O)OP(=O)(O)O)[C@@H](OP(=O)(O)OP(=O)(O)O)[C@H]2O)c(=O)[nH]1

Kd [11]: 9.88 ± 1.09 µM | binding [12]: weak | Kd [13]: ~ 5 μM
Compound: Cc1cc2nc3c(=O)[nH]c(=O)nc-3n(C[C@H](O)[C@H](O)[C@H](O)CO)c2cc1C

binding [8]: no
Compound: N=C(N)NCCC[C@H](N)C(=O)O

Kd [14]: 70.3 ± 6.33 µM | Kd ([15]; apparent, 9-nt Cy3-ODN displaced, inhibitor vs response fit): ~ 54 μM | binding [8]: no
Compound: Cn1c(=O)c2[nH]cnc2n(C)c1=O

binding [8]: no
Compound: Nc1ncnc2c1ncn2[C@@H]1O[C@@H]2COP(=O)(O)O[C@H]2[C@H]1O

binding ([14]; no interaction): no | binding ([15]; 9-nt Cy3-ODN tracer, no binding observed): no
Compound: Cn1c(=O)c2c(ncn2C)n(C)c1=O

— article PMC12376241 (2025)
